Source: patent publication US6852673B2, “Herbicidal pyridine compounds” (BASF Aktiengesellschaft, priority 1998, dated 2005)

Assays:
Format in all cases: in vivo
[1] = test system: Alopecurus myosuroides (ALOMY); assay: Pre-emergence herbicidal evaluation, black grass
Summary of the method: (§1)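 Seeds planted in potting soil, then pots sprayed pre-emergence with aqueous acetone solution of test compound at about 0.0125 to 0.4 kg/ha. Kept under standard greenhouse care; injury rated 2 to 4 weeks after treatment.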

[2] = test system: Ambrosia artemiisifolia (AMBEL); assay: Pre-emergence herbicidal evaluation, ragweed
Summary of the method: as §1

[3] = test system: Abutilon theophrasti (ABUTH); assay: Post-emergence herbicidal evaluation, velvetleaf; conditions: rated 2 to 4 weeks after treatment
Summary of the method: (§2)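 Injury was scored visually from 0 to 9, with 0 matching untreated plants and 9 denoting death, between 2 and 4 weeks after foliar application of aqueous dilutions of acetone solutions at roughly 0.03–0.4 kg/ha per pot.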

[4] = test system: Matricaria inodora (MATIN); assay: Post-emergence herbicidal evaluation, mayweed; conditions: rated 2 to 4 weeks after treatment
Summary of the method: as §2

[5] = test system: Abutilon theophrasti (ABUTH); assay: Pre-emergence herbicidal evaluation, velvetleaf
Summary of the method: as §1

[6] = test system: Lamium purpureum (LAMPU); assay: Pre-emergence herbicidal evaluation, purple deadnettle
Summary of the method: as §1

[7] = test system: Oryza sativum (ORYSA); assay: Post-emergence herbicidal evaluation, rice; conditions: rated 2 to 4 weeks after treatment
Summary of the method: as §2

[8] = test system: Solanum nigrum (SOLNI); assay: Pre-emergence herbicidal evaluation, black nightshade
Summary of the method: as §1

[9] = test system: Zea mays (ZEAMX); assay: Post-emergence herbicidal evaluation, maize; conditions: rated 2 to 4 weeks after treatment
Summary of the method: as §2

[10] = test system: Lamium purpureum (LAMPU); assay: Post-emergence herbicidal evaluation, purple deadnettle; conditions: rated 2 to 4 weeks after treatment
Summary of the method: as §2

[11] = test system: Ipomoea hederacea (IPOHE); assay: Post-emergence herbicidal evaluation, morning glory; conditions: rated 2 to 4 weeks after treatment
Summary of the method: as §2

[12] = test system: Matricaria inodora (MATIN); assay: Pre-emergence herbicidal evaluation, mayweed
Summary of the method: as §1

[13] = test system: Setaria viridis (SETVI); assay: Pre-emergence herbicidal evaluation, green foxtail
Summary of the method: as §1

[14] = test system: Stellaria media (STEME); assay: Post-emergence herbicidal evaluation, chickweed; conditions: rated 2 to 4 weeks after treatment
Summary of the method: as §2

[15] = test system: Zea mays (ZEAMX); assay: Pre-emergence herbicidal evaluation, maize
Summary of the method: as §1

[16] = test system: Solanum nigrum (SOLNI); assay: Post-emergence herbicidal evaluation, black nightshade; conditions: rated 2 to 4 weeks after treatment
Summary of the method: as §2

[17] = test system: Glycine max (GLXMA); assay: Pre-emergence herbicidal evaluation, soyabeans
Summary of the method: as §1

[18] = test system: Digitaria sanguinalis (DIGSA); assay: Post-emergence herbicidal evaluation, large crabgrass; conditions: rated 2 to 4 weeks after treatment
Summary of the method: as §2

[19] = test system: Hordeum vulgare (HORVW); assay: Post-emergence herbicidal evaluation, winter barley; conditions: rated 2 to 4 weeks after treatment
Summary of the method: as §2

[20] = test system: Echinochloa grus galli (ECHCG); assay: Post-emergence herbicidal evaluation, barnyard grass; conditions: rated 2 to 4 weeks after treatment
Summary of the method: as §2

[21] = test system: Oryza sativum (ORYSA); assay: Pre-emergence herbicidal evaluation, rice
Summary of the method: as §1

[22] = test system: Ipomoea hederacea (IPOHE); assay: Pre-emergence herbicidal evaluation, morning glory
Summary of the method: as §1

[23] = test system: Echinochloa grus galli (ECHCG); assay: Pre-emergence herbicidal evaluation, barnyard grass
Summary of the method: as §1

[24] = test system: Glycine max (GLXMA); assay: Post-emergence herbicidal evaluation, soyabeans; conditions: rated 2 to 4 weeks after treatment
Summary of the method: as §2

[25] = test system: Hordeum vulgare (HORVW); assay: Pre-emergence herbicidal evaluation, winter barley
Summary of the method: as §1

[26] = test system: Triticum aestivum (TRZAW); assay: Post-emergence herbicidal evaluation, winter wheat; conditions: rated 2 to 4 weeks after treatment
Summary of the method: as §2

Cc1cc(OC/C=C/C(F)(F)F)nc(Oc2cc(C(F)(F)F)nn2C)c1 [Example 1, (E)-2-(1-Methyl-3-trifluoromethylpyrazol-5-yloxy)-4-methyl-6-(4,4,4-trifluorobut-2-enyloxy)pyridine]
ALOMY rating ([1]; dose 0.013 kg/ha): 4 (4 - Injury)
ALOMY rating ([1]; dose 0.025 kg/ha): 6 (6 - Herbicidal effect)
ALOMY rating ([1]; dose 0.1 kg/ha): 8 (8 - Approaching complete kill)
ALOMY rating ([1]; dose 0.4 kg/ha): 9 (9 - Complete kill)
AMBEL rating ([2]; dose 0.013 kg/ha): 5 (5 - Definite injury)
AMBEL rating ([2]; dose 0.025 kg/ha): 9 (9 - Complete kill)
AMBEL rating ([2]; dose 0.1 kg/ha): 9 (9 - Complete kill)
AMBEL rating ([2]; dose 0.4 kg/ha): 9 (9 - Complete kill)
ABUTH rating ([3]; dose 0.03 kg/ha): 8 (8 - Approaching complete kill)
ABUTH rating ([3]; dose 0.1 kg/ha): 8 (8 - Approaching complete kill)
ABUTH rating ([3]; dose 0.4 kg/ha): 8 (8 - Approaching complete kill)
MATIN rating ([4]; dose 0.03 kg/ha): 8 (8 - Approaching complete kill)
MATIN rating ([4]; dose 0.1 kg/ha): 8 (8 - Approaching complete kill)
MATIN rating ([4]; dose 0.4 kg/ha): 8 (8 - Approaching complete kill)
activity against Abutilon [5]: superior activity
ABUTH rating ([5]; dose 0.013 kg/ha): 7 (7 - Good herbicidal effect)
ABUTH rating ([5]; dose 0.025 kg/ha): 7 (7 - Good herbicidal effect)
ABUTH rating ([5]; dose 0.1 kg/ha): 8 (8 - Approaching complete kill)
ABUTH rating ([5]; dose 0.4 kg/ha): 9 (9 - Complete kill)
LAMPU rating ([6]; dose 0.013 kg/ha): 8 (8 - Approaching complete kill)
LAMPU rating ([6]; dose 0.025 kg/ha): 9 (9 - Complete kill)
LAMPU rating ([6]; dose 0.1 kg/ha): 9 (9 - Complete kill)
LAMPU rating ([6]; dose 0.4 kg/ha): 9 (9 - Complete kill)
ORYSA rating ([7]; dose 0.03 kg/ha): 2 (2 - Slight effect)
ORYSA rating ([7]; dose 0.1 kg/ha): 3 (3 - Moderate effect)
ORYSA rating ([7]; dose 0.4 kg/ha): 5 (5 - Definite injury)
SOLNI rating ([8]; dose 0.013 kg/ha): 4 (4 - Injury)
SOLNI rating ([8]; dose 0.025 kg/ha): 8 (8 - Approaching complete kill)
SOLNI rating ([8]; dose 0.1 kg/ha): 9 (9 - Complete kill)
SOLNI rating ([8]; dose 0.4 kg/ha): 9 (9 - Complete kill)
ZEAMX rating ([9]; dose 0.03 kg/ha): 2 (2 - Slight effect)
ZEAMX rating ([9]; dose 0.1 kg/ha): 5 (5 - Definite injury)
ZEAMX rating ([9]; dose 0.4 kg/ha): 6 (6 - Herbicidal effect)
LAMPU rating ([10]; dose 0.03 kg/ha): 8 (8 - Approaching complete kill)
LAMPU rating ([10]; dose 0.1 kg/ha): 8 (8 - Approaching complete kill)
LAMPU rating ([10]; dose 0.4 kg/ha): 8 (8 - Approaching complete kill)
IPOHE rating ([11]; dose 0.03 kg/ha): 9 (9 - Complete kill)
IPOHE rating ([11]; dose 0.1 kg/ha): 9 (9 - Complete kill)
IPOHE rating ([11]; dose 0.4 kg/ha): 9 (9 - Complete kill)
MATIN rating ([12]; dose 0.013 kg/ha): 8 (8 - Approaching complete kill)
MATIN rating ([12]; dose 0.025 kg/ha): 9 (9 - Complete kill)
MATIN rating ([12]; dose 0.1 kg/ha): 9 (9 - Complete kill)
MATIN rating ([12]; dose 0.4 kg/ha): 9 (9 - Complete kill)
activity against Setaria [13]: superior activity
SETVI rating ([13]; dose 0.013 kg/ha): 9 (9 - Complete kill)
SETVI rating ([13]; dose 0.025 kg/ha): 9 (9 - Complete kill)
SETVI rating ([13]; dose 0.1 kg/ha): 9 (9 - Complete kill)
SETVI rating ([13]; dose 0.4 kg/ha): 9 (9 - Complete kill)
STEME rating ([14]; dose 0.03 kg/ha): 5 (5 - Definite injury)
STEME rating ([14]; dose 0.1 kg/ha): 5 (5 - Definite injury)
STEME rating ([14]; dose 0.4 kg/ha): 6 (6 - Herbicidal effect)
ZEAMX rating ([15]; dose 0.013 kg/ha): 1 (1 - Trace effect)
ZEAMX rating ([15]; dose 0.025 kg/ha): 2 (2 - Slight effect)
ZEAMX rating ([15]; dose 0.4 kg/ha): 5 (5 - Definite injury)
SOLNI rating ([16]; dose 0.03 kg/ha): 5 (5 - Definite injury)
SOLNI rating ([16]; dose 0.1 kg/ha): 5 (5 - Definite injury)
SOLNI rating ([16]; dose 0.4 kg/ha): 5 (5 - Definite injury)
GLXMA rating ([17]; dose 0.013 kg/ha): 1 (1 - Trace effect)
GLXMA rating ([17]; dose 0.025 kg/ha): 1 (1 - Trace effect)
GLXMA rating ([17]; dose 0.1 kg/ha): 4 (4 - Injury)
GLXMA rating ([17]; dose 0.4 kg/ha): 5 (5 - Definite injury)
DIGSA rating ([18]; dose 0.03 kg/ha): 7 (7 - Good herbicidal effect)
DIGSA rating ([18]; dose 0.1 kg/ha): 8 (8 - Approaching complete kill)
DIGSA rating ([18]; dose 0.4 kg/ha): 8 (8 - Approaching complete kill)
HORVW rating ([19]; dose 0.03 kg/ha): 3 (3 - Moderate effect)
HORVW rating ([19]; dose 0.1 kg/ha): 5 (5 - Definite injury)
HORVW rating ([19]; dose 0.4 kg/ha): 5 (5 - Definite injury)
ECHCG rating ([20]; dose 0.03 kg/ha): 5 (5 - Definite injury)
ECHCG rating ([20]; dose 0.1 kg/ha): 8 (8 - Approaching complete kill)
ECHCG rating ([20]; dose 0.4 kg/ha): 8 (8 - Approaching complete kill)
ORYSA rating ([21]; dose 0.013 kg/ha): 2 (2 - Slight effect)
ORYSA rating ([21]; dose 0.025 kg/ha): 2 (2 - Slight effect)
ORYSA rating ([21]; dose 0.1 kg/ha): 4 (4 - Injury)
ORYSA rating ([21]; dose 0.4 kg/ha): 5 (5 - Definite injury)
IPOHE rating ([22]; dose 0.013 kg/ha): 2 (2 - Slight effect)
IPOHE rating ([22]; dose 0.025 kg/ha): 5 (5 - Definite injury)
IPOHE rating ([22]; dose 0.1 kg/ha): 7 (7 - Good herbicidal effect)
IPOHE rating ([22]; dose 0.4 kg/ha): 9 (9 - Complete kill)
ECHCG rating ([23]; dose 0.013 kg/ha): 3 (3 - Moderate effect)
ECHCG rating ([23]; dose 0.025 kg/ha): 5 (5 - Definite injury)
ECHCG rating ([23]; dose 0.1 kg/ha): 7 (7 - Good herbicidal effect)
ECHCG rating ([23]; dose 0.4 kg/ha): 9 (9 - Complete kill)
GLXMA rating ([24]; dose 0.03 kg/ha): 6 (6 - Herbicidal effect)
GLXMA rating ([24]; dose 0.1 kg/ha): 8 (8 - Approaching complete kill)
GLXMA rating ([24]; dose 0.4 kg/ha): 8 (8 - Approaching complete kill)
HORVW rating ([25]; dose 0.013 kg/ha): 1 (1 - Trace effect)
HORVW rating ([25]; dose 0.025 kg/ha): 2 (2 - Slight effect)
HORVW rating ([25]; dose 0.1 kg/ha): 5 (5 - Definite injury)
HORVW rating ([25]; dose 0.4 kg/ha): 5 (5 - Definite injury)
TRZAW rating ([26]; dose 0.03 kg/ha): 2 (2 - Slight effect)
TRZAW rating ([26]; dose 0.1 kg/ha): 3 (3 - Moderate effect)
TRZAW rating ([26]; dose 0.4 kg/ha): 5 (5 - Definite injury)
